# “Also recorded” adds a separate entry of the source.
# What was measured:
# [1] = tested on: dendritic cells differentiated from mouse bone marrow cells; assay: maturation markers of dendritic cells by FACS; assay type: cell-based; conditions: Poly6 0.1, 0.5, 1 μM, 24 hours
# Protocol: (§1) The femur and tibia of C57BL/6 mice were isolated, and bone marrow cells therein were isolated. The isolated bone marrow cells were cultured in IMDM medium (supplemented with IL-4 and GM-CSF) to induce differentiation of dendritic cells. After culturing for 6 days, dendritic cells having 80% or more of CD11c markers were used in the experiment (FIG. 3).
# Dendritic cells differentiated from mouse bone marrow cells were treated with Poly6 peptides at each concentration of 0.1 μM, 0.5 μM, and 1 μM and cultured for 24 hours, and then expression of representative maturation markers CD80, CD86, and MHC I, and a migration marker CCR7 of dendritic cells were confirmed by fluorescence activated cell sorting (FACS).
# HBV = assay: anti-HBV effect in HBV-carrier mouse models (hydrodynamic injection); assay type: in vivo, hepatitis B virus
# [2] = tested on: peripheral blood mononuclear cells (PBMC); assay: IFN-γ-expressing T cells in PBMC treated with Poly6; assay type: cell-based; conditions: human PBMC, IL-2 three days, Poly6 at various concentrations
# dendritic cells = assay: migration of Poly6-treated dendritic cells to lymph nodes after footpad injection; assay type: in vivo, mouse; conditions: for ability of activated dendritic cells to migrate to the lymph nodes: 0.1 μM of Poly6, 0.1 μg/ml of LPS, vs DCs without any treatment
# Protocol: Dendritic cells activated by treatment with Poly6 peptides for 24 hours were fluorescently labeled (CFSE) and injected into C57BL/6 mice by footpad injection, and after 3 days, the inguinal lymph nodes of the mice were extracted to confirm numbers of labeled dendritic cells.
# [3] = tested on: dendritic cells differentiated from mouse bone marrow cells; assay: inflammatory cytokines secreted by dendritic cells (ELISA); assay type: cell-based; conditions: Poly6 0.1, 0.5, 1 μM, 24 hours
# Protocol: as §1
# When dendritic cells were treated with Poly6 peptides at concentrations of 0.1 μM, 0.5 μM, and 1 μM for 24 hours, inflammatory cytokines TNF-α, IL-6, and IL-12p40 secreted by dendritic cells were confirmed by ELISA.
Substance,"expression level of the maturation markers of dendritic cells (CD80, CD86, MHC I, CCR7) [1]",anti-HBV effects (HBV),IFN-γ-expressing T cells [2],ability of activated dendritic cells to migrate to the lymph nodes (dendritic cells),"numbers of dendritic cells found in the lymph nodes (dendritic cells; DCs treated with 0.1 μM Poly6, footpad injection, 3 days, vs untreated DCs)",anti-HIV-1 effects (HIV-1),"amounts of TNF-α, IL-6, and IL-12p40 secreted by dendritic cells [3]"
GRLVFQ (poly6 peptide),increased as the concentration of treated Poly6 increased,anti-HBV effects in HBV-carrier mouse models were also observed,significantly increased IFN-γ-expressing T cells compared to a group treated with PBS; also recorded: concentration-dependent trend was also observed,have an ability to migrate to the lymph nodes on their own,increased statistically significantly,showed anti-HIV-1 effects,"amounts of TNF-α, IL-6, and IL-12p40 secreted by dendritic cells increased"
"lipopolysaccharide [LPS, reference compound]",,,,have an ability to migrate to the lymph nodes on their own,,,

# From patent US12472247B2, “Immune adjuvant comprising hepatitis B virus-derived polypeptide” (priority 2020, dated 2025)
